Measurements as given in patent US20110118343A1, “Antitumoral Macrolides” (Pharma Mar, S. A., priority 2008, published 2011).
In brackets after ≈: the same amount, converted by molar mass. Where two headings read alike, the source gives them in different places.

What was measured:
P388 leukemia = settings: cited from earlier work; for antitumor activity / toxicity in antitumoral study: P388 leukemia cell line in CDF1 mice
L1210 = L1210 cell line; cited from earlier work
MDA-MB-231 [1] = experiment: SRB colorimetric cytotoxicity assay, MDA-MB-231; assay type: cell-based; settings: for LC50 (concentration killing 50% of cells) / GI50: Homo sapiens; for LC50 (concentration killing 50% of cells): MDA-MB-231, 72 h, read-out: LC50; for GI50 / TGI: MDA-MB-231, 72 hours treatment, SRB; for TGI: total cell growth inhibition
Excerpt: (§1) The aim of this assay is to evaluate the in vitro cytostatic (ability to delay or arrest tumor cell growth) or cytotoxic (ability to kill tumor cells) activity of the samples being tested.
(§2) A colorimetric assay, using sulforhodamine B (SRB) reaction has been adapted to provide a quantitative measurement of cell growth and viability (following the technique described by Skehan et al. J. Natl. Cancer Inst. 1990, 82, 1107-1112).
(§3) This form of assay employs SBS-standard 96-well cell culture microplates (Faircloth et al. Methods in Cell Science, 1988, 11(4), 201-205; Mosmann et al, Journal of Immunological Methods, 1983, 65(1-2), 55-63). All the cell lines used in this study were obtained from the American Type Culture Collection (ATCC) and derive from different types of human cancer.
(§4) Cells were maintained in Dulbecco's Modified Eagle Medium (DMEM) supplemented with 10% Fetal Bovine Serum (FBS), 2 mM L-glutamine, 100 U/mL penicillin and 100 U/mL streptomycin at 37° C., 5% CO2 and 98% humidity. For the experiments, cells were harvested from subconfluent cultures using trypsinization and resuspended in fresh medium before counting and plating.
(§5) Cells were seeded in 96 well microtiter plates, at 5×10^3-7.5×10^3 cells per well in aliquots of 150 μL, and allowed to attach to the plate surface for 18 hours (overnight) in drug free medium. After that, one control (untreated) plate of each cell line was fixed (as described below) and used for time zero reference value. Culture plates were then treated with test compounds (50 μL aliquots of 4× stock solutions in complete culture medium plus 4% DMSO) using ten serial dilutions (concentrations ranging from 10 to 0.00262 μg/mL) and triplicate cultures (1% final concentration of DMSO). After 72 hours treatment, the antitumor effect was measured by using the SRB methodology: Briefly, cells were washed twice with PBS, fixed for 15 min in 1% glutaraldehyde solution at room temperature, rinsed twice in PBS, and stained in 0.4% SRB solution for 30 min at room temperature. Cells were then rinsed several times with 1% acetic acid solution and air-dried at room temperature. SRB was then extracted in 10 mM trizma base solution and the absorbance measured in an automated spectrophotometric plate reader at 490 nm. Effects on cell growth and survival were estimated by applying the NCI algorithm (Boyd M R and Paull K D. Drug Dev. Res. 1995, 34, 91-104).
(§6) Using the mean±SD of triplicate cultures, a dose-response curve was automatically generated using nonlinear regression analysis. Three reference parameters were calculated (NCI algorithm) by automatic interpolation: GI50=compound concentration that produces 50% cell growth inhibition, as compared to control cultures; TGI=compound concentration that produces total cell growth inhibition (cytostatic effect), as compared to control cultures, and LC50=compound concentration that produces 50% net cell killing (cytotoxic effect).

HT29 [2] = experiment: SRB colorimetric cytotoxicity assay, HT29; assay type: cell-based; settings: for TGI / GI50: HT29, 72 hours treatment, SRB; for TGI: total cell growth inhibition; for CC50 / GI50: Homo sapiens; for CC50: HT-29, 72 h, read-out: LC50; for GI50: HT-29
Excerpt: as §1, §2, §3, §4, §5, §6

A549 [3] = experiment: SRB colorimetric cytotoxicity assay, A549; assay type: cell-based; settings: for TGI / GI50: A549, 72 hours treatment, SRB; for TGI: total cell growth inhibition; for CC50 / GI50: Homo sapiens; for CC50: A549, 72 h, read-out: LC50
Excerpt: as §1, §2, §3, §4, §5, §6

KB cells = settings: KB cell line; cited from earlier work
HT29 [4] = settings: cited from earlier work
MDA-MB-231 [5] = settings: cited from earlier work
A549 [6] = settings: cited from earlier work

Compound	antitumor activity (P388 leukemia)	toxicity in antitumoral study (P388 leukemia)	IC50 (cytotoxicity) (L1210)	LC50 (concentration killing 50% of cells) (MDA-MB-231 [1])	GI50 (MDA-MB-231 [1])	TGI (MDA-MB-231 [1])	TGI (HT29 [2])	CC50 (HT29 [2])	GI50 (HT29 [2])	TGI (A549 [3])	CC50 (A549 [3])	GI50 (A549 [3])	IC50 (cytotoxicity) (KB cells)	also measured
CO[C@H]1CC(CC[C@H](C)C2OC(=O)/C=C/C(C)=C/CC(O)C[C@@H]3C=CCC(C[C@H](OC)[C@@H](C)[C@@H](O)C[C@@H](O)[C@H](C)[C@H](O)[C@@H](C)[C@H]([C@@H](C)CC[C@H]4C[C@H](OC)C[C@H](C)O4)OC(=O)/C=C/C(C)=C/C[C@H](O)C[C@@H]4C=CCC(C[C@H](OC)[C@@H](C)[C@@H](O)C[C@@H](O)[C@H](C)[C@H](O)[C@H]2C)O4)O3)O[C@@H](C)C1 (single isomer, unassigned) [isomer 11]	did not show promising antitumor activity	toxic	–	–	–	–	–	–	–	–	–	–	–	–
COC1CC(C)OC(CCC(C)C(O)C(C)C2OC(=O)/C(C)=C/CC(O)CC3C=CCC(CC(OC)C(C)C(O)CC(O)C(C)C(C(C)C(O)C(C)CCC4CC(OC)CC(C)O4)OC(=O)/C(C)=C/CC(O)CC4C=CCC(CC(OC)C(C)C(O)CC(O)C2C)O4)O3)C1 (stereo not shown) [Misakinolide A]	–	–	0.035 µg/mL (≈ 0.0262 µM)	–	–	–	–	–	–	–	–	–	–	T/C (P388 leukemia; dose of 0.1 mg/kg (mouse) against P388 leukemia): 140%
COCC1C/C(C)=C\C2OC(=O)C=C(C/C=C/C(O)CC(O)C(C)C(OC)CCC(C)C(OC)CC3CC(=CC(=O)O3)CC(=O)N/C=C\C=C\CC(CC(=O)OC)CC(O)C/C(C)=C\C=C\C(OC)CC(=O)O1)C2C (stereo not shown) [Nanomolide A]	–	–	–	45.5 nM	8.35 nM	1.71E−08 Molar	1.04E−08 Molar	16.1 nM	7.59 nM	1.52E−08 Molar	23.7 nM	10.4 nM	–	–
COCC1C/C(C)=C\C2OC(=O)C=C(C/C=C/C(O)CC(O)C(C)C(OC)CCC(C)C(OC)CC3CC(=CC(=O)O3)CC(=O)N/C=C\C=C\CC3CC(=O)OC(C/C(C)=C\C=C\C(OC)CC(=O)O1)C3)C2C (stereo not shown) [Nanomolide B]	–	–	–	108 nM	94.9 nM	9.78E−08 Molar	9.29E−08 Molar	97.8 nM	88 nM	1.27E−07 Molar	235 nM	73.4 nM	–	–
COCC1C/C(C)=C\C2OC(=O)C/C(=C\C=C\C(O)CC(O)C(C)C(OC)CCC(C)C(OC)CC3CC(=CC(=O)O3)CC(=O)N/C=C\C=C\CC(CC(=O)OC)CC(O)C/C(C)=C\C=C\C(OC)CC(=O)O1)C2C (stereo not shown) [Nanomolide C]	–	–	–	22.8 nM	15.2 nM	1.90E−08 Molar	1.52E−08 Molar	21.8 nM	12.3 nM	2.47E−08 Molar	49.3 nM	14.2 nM	–	–
CO[C@H]1CC(CC[C@H](C)[C@H](O)[C@H](C)[C@H]2OC(=O)/C=C/C(C)=C/C[C@H](O)C[C@@H]3C=CC[C@@H](C[C@H](OC)[C@@H](C)[C@@H](O)C[C@@H](O)[C@H](C)[C@@H]([C@@H](C)[C@@H](O)[C@@H](C)CC[C@H]4C[C@H](OC)C[C@H](C)O4)OC(=O)/C=C/C(C)=C/C[C@H](O)C[C@@H]4C=CC[C@@H](C[C@H](OC)[C@@H](C)[C@@H](O)C[C@@H](O)[C@@H]2C)O4)O3)O[C@@H](C)C1 (stereo partly shown) [Swinholide A]	did not show promising antitumor activity	toxic	0.03 µg/mL (≈ 0.0216 µM)	–	–	–	–	–	–	–	–	–	0.04 µg/mL (≈ 0.0288 µM)	–
COC1CC(C)OC(CCC(C)C(O)C(C)C2OC(=O)/C=C\C(C)=C\CC(O)CC3C=CCC(CC(OC)C(C)C(O)CC(O)C(C)C(C(C)C(O)C(C)CCC4CC(O)CC(C)O4)OC(=O)/C=C\C(C)=C\CC(O)CC4C=CCC(CC(OC)C(C)C(O)CC(O)C2C)O4)O3)C1 (stereo not shown) [Swinholide C]	–	–	0.14 µg/mL (≈ 0.102 µM)	–	–	–	–	–	–	–	–	–	0.05 µg/mL (≈ 0.0363 µM)	–
COC1CC(C)OC(CCC(C)C(O)C(C)C2OC(=O)/C=C/C(C)=C/CC(O)CC3C=CCC(CC(OC)C(C)C(O)CC(O)C(C)C(C(C)C(O)C(C)CCC4CC(OC)CC(C)O4)OC(=O)/C(C)=C/CC(O)CC4C=CCC(CC(OC)C(C)C(O)CC(O)C2C)O4)O3)C1 (stereo not shown) [compound a]	–	–	–	–	–	–	–	–	–	–	–	–	–	GI50 (HT29 [4]): 338 nM; GI50 (MDA-MB-231 [5]): 808 nM; GI50 (A549 [6]): 228 nM
CO[C@H]1CC(CC[C@H](C)[C@H](O)[C@H](C)C2OC(=O)/C=C/C(C)=C/C[C@H](O)C[C@@H]3C=CC[C@@H](C[C@H](OC)[C@@H](C)[C@@H](O)C[C@@H](O)[C@H](C)[C@H](O)[C@@H](C)[C@H]([C@@H](C)CC[C@H]4C[C@H](OC)C[C@H](C)O4)OC(=O)/C=C/C(C)=C/C[C@H](O)C[C@@H]4C=CCC(C[C@H](OC)[C@@H](C)[C@@H](O)C[C@@H](O)[C@@H]2C)O4)O3)O[C@@H](C)C1 (stereo partly shown) [isoswinholide A]	did not show promising antitumor activity	toxic	1.35 µg/mL (≈ 0.971 µM)	–	–	–	–	–	–	–	–	–	1.1 µg/mL (≈ 0.791 µM)	–
Swinholide B	–	–	0.30 µg/mL	–	–	–	–	–	–	–	–	–	0.04 µg/mL	–
